This is an account of results in US20230348450A1, “CARBOXYLIC ACID-CONTAINING COMPOUNDS AS MODULATORS OF BIS-PHOSPHOGLYCERATE MUTASE FOR THE TREATMENT OF SICKLE CELL DISEASE” (Genzyme Corporation, priority 2020, published 2023).

As usually defined, the IC50 is the midpoint of a concentration-inhibition curve.

Structures are written as SMILES.

In the experiment the target is hBPGM (Homo sapiens (Human), UniProt P07738). Description: BPGM Synthase Assay. It counts as biochemical. To be noted: Table 6 additional results; read-out: huBPGM: synthase Enzyme IC50. The procedure:
Example B1. BPGM Synthase Assay
The following materials were used in this assay: deionized water; Bisphosphoglycerate mutase (BPGM; Standard Buffer: 50 mM Tris, 0.01% Tween 20, pH 7.4); BPGM Reaction Buffer (50 mM Tris, 0.01% Tween 20, 3.23 mM KH2PO4, pH 7.4); dithiothreitol (DTT; Stock solution: 100 mM in Standard Buffer); 384-Well Black Assay Plate (Corning, P/N 3575); DMSO; BPGM Stock Solution (500 nM in BPGM Standard Buffer); Glyceraldehyde 3-phosphate dehydrogenase (GAPDH; Stock Solution: 40 U/mL in 20 mM Tris-HCL Buffer with 20% Glycerol, 1 mM EDTA, 1 mM DTT); Glyceraldehyde 3-phosphate (GAP; Stock Solution: 20 mM in BPGM Standard Buffer); 3-PG Stock Solution (500 μM in BPGM Standard Buffer); Nicotinamide adenine dinucleotide (NAD; Stock Solution: 50 mM in BPGM Standard Buffer); Koningic Acid (1 mM Stock in DMSO); Resazurin Stock Solution (10 mM in DMSO); Diaphorase Stock Solution (40 U/mL in BPGM Standard Buffer); DTT Reaction Buffer (1 mM DTT in BPGM Reaction Buffer); Enzyme Solution (5 nM BPGM, 0.4 U/mL GAPDH in DTT Reaction Buffer); GAPDH Solution (0.4 U/mL GAPDH in DTT Reaction Buffer); Substrate Solution (2 mM NAD, 20 μM 3PG, 800 μM GAP in DTT Reaction Buffer); and Resazurin Solution (5 U/mL Diaphorase, 500 μM Resazurin in BPGM Standard Buffer).
To the assay plate was added Enzyme Solution (20 uL) to columns 2-22 and 24 of the assay plate. To columns 1 and 23 was added GAPDH Solution (20 uL). A separate compound plate was prepared at the desired concentrations and all wells were normalized with 5% DMSO. The compound plate was incubated for 30 minutes at RT. Next, the substrate solution (20 μL) was dispensed to all reaction wells and the plate was incubated for 60 minutes at RT. Koningic acid (1 μL) was added and the plate was incubated for 10 minutes at RT. During this time period, the NADH fluorescence was read at ex: 360/em: 460. Next, Resazurin Solution (10 μL) was added to all reaction wells and the plate was incubated for 30 minutes at RT. The resorufin fluorescence was then read at ex:544/em:590.

Chain of hBPGM (P07738 whole entry, looked up): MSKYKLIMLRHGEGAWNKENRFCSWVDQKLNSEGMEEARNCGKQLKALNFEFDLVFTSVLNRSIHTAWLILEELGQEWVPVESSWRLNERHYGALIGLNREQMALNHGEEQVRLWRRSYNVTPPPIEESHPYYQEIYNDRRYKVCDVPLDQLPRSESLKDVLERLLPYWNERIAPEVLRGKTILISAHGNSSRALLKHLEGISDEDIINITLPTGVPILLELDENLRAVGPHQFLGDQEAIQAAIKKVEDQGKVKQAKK

For the compound `Cc1nc(CN2CCCCC2)sc1-c1cccc(-c2ccc(C(=O)O)c(O)c2)c1` [Example 298], the IC50 is 5 µM.
On to `Cc1nc(C)c(-c2cccc(-c3ccc(C(=O)O)c(C(F)(F)F)c3)c2)s1` [Example 314], for which the IC50 came out at 100 µM.
Take `Cc1nc(Cn2c(C)ccc(C#N)c2=O)sc1-c1cccc(-c2ccc(C(=O)O)c(O)c2)c1` [Example 295]: the IC50 is 0.6 µM.
Regarding `Cc1ccc(C#N)c(OCCc2ccn(-c3cccc(-c4ccc(C(=O)O)c(O)c4)c3)n2)n1` [Example 311], the IC50 was 21 µM.
Consider `Cc1nc(C)c(-c2cccc(-c3ccc(C(=O)O)c(O)c3)n2)s1` [Example 302], for which the IC50 worked out at 1.2 µM.
As for `Cc1nc(CC(F)(F)F)sc1-c1cccc(-c2ccc(C(=O)O)c(O)c2)c1` [Example 292], the figure is 5.8 µM; as for `Cc1ccc(C#N)c(OCCn2cc(-c3cccc(-c4ccc(C(=O)O)c(O)c4)c3)cn2)n1` [Example 110], 8.8 µM; as for `Cc1nc(C)c(NC(=O)Nc2ccc(C(=O)O)c(O)c2)s1` [Example 337], > 25 µM.
Consider `Cc1nc(COc2ccccn2)sc1-c1cccc(-c2ccc(C(=O)O)nc2)c1` [Example 58], for which the IC50 is > 25 µM.
Consider `Cc1nc(COc2ccc(F)cn2)sc1-c1cccc(-c2ccc(C(=O)O)c(C(F)F)c2)n1` [Example 22], for which the IC50 stood at 0.29 µM.
The same measure for `Cc1nc(COc2ccc(F)cn2)sc1-c1cnn(-c2ccc(C(=O)O)cc2)n1` [Example 19]: 0.85 µM; for `Cc1nc(COc2ncccn2)sc1-c1cccc(-c2cc(C(=O)O)nn2C)n1` [Example 27]: 7.4 µM.
The same measure for `Cc1nc(COc2ccc(F)cn2)sc1-c1ccn(-c2ccc(C(=O)O)c(C(F)F)c2)n1` [Example 17]: 0.89 µM; for `Cc1nc(COCC2CCCO2)sc1-c1cccc(-c2ccc(C(=O)O)cc2)c1` (stereo not drawn) [Example 46]: 1.2 µM.
The same measure for `Cc1nc(COC2CCCCO2)sc1-c1cccc(-c2ccc(C(=O)O)cc2)n1` (stereo not drawn) [Example 55]: 0.38 µM; for `Cc1nc(CCC(N)=O)sc1-c1cccc(-c2ccc(C(=O)O)c(O)c2)c1` [Example 265]: 7.8 µM.
With `Cc1ccc(C#N)c(OCC(=O)N2CCC(c3cccc(-c4ccc(C(=O)O)c(O)c4)c3)C2)n1` (stereo not drawn) [Example 328], the IC50 is 45 µM.
As for `Cc1nc(C)c(-c2ccc(C#N)c(-c3ccc(C(=O)O)c(O)c3)c2)s1` [Example 294], the figure is 44 µM.
Take `Cc1nc(COc2ncccn2)sc1-c1cccc(-c2ccc(C(=O)NCC(=O)N3CCC(C(=O)O)C3)cc2)n1` (stereo not drawn) [Example 91]: the IC50 is > 25 µM.
Take `Cc1nc(C)c(-c2cc(-c3ccc(C(=O)O)cc3)ccc2O)s1` [Example 301]: the IC50 was > 250 µM.
The same measure for `Cc1nc(COc2ncccn2)sc1-c1cccc(-c2ccc(C(=O)O)c(C(F)F)c2)n1` [Example 54]: 0.18 µM.
With `Cc1nc(Cc2ccccn2)sc1-c1cccc(-c2ccc(C(=O)O)cc2)c1` [Example 287], the half-inhibitory concentration (IC50) was 0.91 µM.
The same measure for `Cc1nc(C)c(-c2ccc(C)c(-c3ccc(C(=O)O)cc3)c2)s1` [Example 305]: 82 µM; for `Cc1nc(C)c(-c2cncc(-c3ccc(C(=O)O)c(O)c3)c2)s1` [Example 299]: 25 µM.
As for `Cc1nc(COc2ncc(C(F)(F)F)cn2)sc1-c1cccc(-c2ccc(C(=O)O)cc2)n1` [Example 43], the figure is 23 µM; as for `Cc1nc(C)c(-c2cccc(-c3ccc(C(=O)O)cc3)c2)s1` [Example 326], 6.4 µM.
As for `Cc1nc(COc2ccc(C(F)(F)F)cn2)sc1-c1cccc(-c2ccc(C(=O)O)cc2)n1` [Example 56], the IC50 is 3.3 µM.
The same measure for `COC(=O)NCc1nc(C)c(-c2csc(-c3cc(NC(=O)OC)c(C(=O)O)cc3F)n2)s1` [Example 196]: 5.6 µM.
As for `Cc1nc(C)c(-c2cccc(-c3ccc(C(=O)O)c(O)c3)c2)s1` [Example 329], the figure is 2.3 µM; as for `Cc1nc(C(C)C)sc1-c1cccc(-c2ccc(C(=O)O)c(O)c2)c1` [Example 324], 2.3 µM; as for `Cc1ccc(C#N)c(OCCn2cc(-c3cccc(-c4ccc(C(=O)O)c(O)c4)c3)c(C)n2)n1` [Example 330], 6.6 µM.
For `Cc1nc(COc2cnn(C(C)(C)C)c2)sc1-c1cccc(-c2ccc(C(=O)O)cc2)n1` [Example 59], the IC50 amounted to 0.97 µM.
As for `Cc1nc(C)c(-c2nc(-c3cc(O)c(C(=O)O)cc3F)sc2C)s1` [Example 241], the IC50 was found to be 21 µM.
The same measure for `Cc1nc(COc2ccc(F)cn2)sc1-c1cccc(-c2ccc(C(=O)O)c(O)c2)n1` [Example 26]: 0.43 µM.
Take `Cc1nc(Cc2ccccc2C(F)(F)F)sc1-c1cccc(-c2ccc(C(=O)O)c(O)c2)c1` [Example 320]: the IC50 was 7 µM.
In the case of `Cc1ccc(C#N)c(OCCc2nc(C)c(-c3cccc(-c4ccc(C(=O)O)c(O)c4)c3)s2)n1` [Example 107], the half-inhibitory concentration (IC50) was 1.9 µM.
The same measure for `Cc1nc(COc2ccccn2)sc1-c1cccc(-c2ccc(C(=O)O)cn2)c1` [Example 69]: 5.5 µM; for `Cc1nc(COC2CCOC2)sc1-c1cccc(-c2ccc(C(=O)O)cc2)c1` (stereo not drawn) [Example 44]: 1.9 µM.
As for `Cc1nc(Cc2ccc(C(F)(F)F)cc2)sc1-c1cccc(-c2ccc(C(=O)O)c(O)c2)c1` [Example 312], the figure is 6.6 µM; as for `Cc1nc(COc2ccccn2)sc1-c1cccc(-c2ccc(C(=O)O)cc2)n1` [Example 57], > 25 µM; as for `COC(=O)NCc1ccc(-c2csc(-c3cc(O)c(C(=O)O)cc3F)n2)cn1` [Example 187], 1.7 µM.
As for `Cc1nc(Cc2ccccc2F)sc1-c1cccc(-c2ccc(C(=O)O)c(O)c2)c1` [Example 104], the IC50 was 1.5 µM.
The same measure for `Cc1ccc(C#N)c(OCC(=O)N2CC(c3cccc(-c4ccc(C(=O)O)cc4)c3)C2)n1` [Example 322]: > 250 µM; for `Cc1nc(C)c(-c2cc(-c3ccc(C(=O)O)c(O)c3)ccn2)s1` [Example 293]: 9.3 µM; for `Cc1nc(C)c(-c2cccc(-c3ccc(C(=O)O)cc3)c2C)s1` [Example 306]: > 250 µM.
As for `Cc1nc(C)c(N2CCN(c3ccc(C(=O)O)c(O)c3)C2=O)s1` [Example 339], the IC50 was > 25 µM.
As for `Cc1nc(C)c(CCOc2ccc(C(=O)O)c(O)c2)s1` [Example 336], the figure is > 25 µM; as for `Cc1ccc(C#N)c(OCCn2cc(-c3cccc(-c4ccc(C(=O)O)c(O)c4)c3)cn2)n1` [Example 111], 15 µM; as for `Cc1nc(C)c(-c2csc(-c3ccc(C(=O)O)c(O)c3)n2)s1` [Example 315], 1.4 µM.
The same measure for `Cc1nc(COc2ncccn2)sc1-c1cccc(-c2cnc(C(=O)O)nc2)n1` [Example 85]: > 25 µM; for `Cc1nc(COc2ccc(C(F)(F)F)nn2)sc1-c1cccc(-c2ccc(C(=O)O)cc2)n1` [Example 48]: 1.9 µM; for `Cc1nc(COc2ncccn2)sc1-c1nc(-c2ccc(C(=O)O)cc2)cs1` [Example 34]: 0.34 µM.
As for `Cc1nc(CNC(=O)C(C)(C)C)sc1-c1cccc(-c2cc(O)c(C(=O)O)cc2F)n1` [Example 150], the figure is 0.5 µM; as for `Cc1nc(CN2CCOCC2=O)sc1-c1cccc(-c2ccc(C(=O)O)c(O)c2)c1` [Example 261], 20 µM; as for `Cc1ccc(C#N)c(OCC(=O)N/N=C/c2cccc(-c3cc(O)c(C(=O)O)cc3F)c2)n1` [Example 332], 0.45 µM.
For `Cc1nc(C)c(-c2ccnc(-c3ccc(C(=O)O)c(O)c3)c2)s1` [Example 310], the IC50 worked out at 2 µM.
The same measure for `Cc1nc(C)c(-c2nsc(-c3cc(O)c(C(=O)O)cc3F)n2)s1` [Example 205]: 1.1 µM; for `Cc1nc(CO)sc1-c1cccc(-c2c[nH]c(C(=O)O)c2)n1` [Example 77]: > 25 µM.
For `Cc1nc(CNC(C)C)sc1-c1csc(-c2cc(O)c(C(=O)O)cc2F)n1` [Example 176], the 50% inhibitory concentration (IC50) turned out to be 0.89 µM.
Turning to `Cc1nc(CNC(C)c2cccnc2)sc1-c1csc(-c2cc(O)c(C(=O)O)cc2F)n1` (stereo not drawn) [Example 170], the IC50 worked out at 1.2 µM.
As for `Cc1nc(OCC2CCCCO2)sc1-c1cccc(-c2ccc(C(=O)O)cc2)n1` (stereo not drawn) [Example 41], the figure is 19 µM; as for `COC(=O)NCc1nc(C)c(-c2csc(-c3ccc(C(=O)NS(=O)(=O)c4cccc(OCC(=O)O)c4)cc3)n2)s1` [Example 331], > 25 µM.
With `Cc1nc(COc2ccc(F)cn2)sc1-c1ccn(-c2ccc(C(=O)O)c(O)c2)n1` [Example 21], the concentration for half-maximal inhibition (IC50) turned out to be 0.29 µM.
